From patent US10968222B2, “2-azabicyclo hexane JAK inhibitor compound” (THERAVANCE BIOPHARMA R&D IP, LLC, priority 2018, dated 2021)

Legend:
[1] = target: T1, PAK4 (Homo sapiens, UniProt O96013); experiment: Kinome screen, PAK4; type: binding; details: screened at 1 μM
T1 construct: made in house; host or cells: E. coli BL21-derived host (T7 phage) or HEK-293 cells
Experimental: (§1) Compounds 1 and C-1 were screened against other kinases to evaluate their selectivity profile.
(§2) Kinase-tagged T7 phage strains were grown in parallel in 24-well blocks in an E. coli host derived from the BL21 strain. E. coli were grown to log-phase and infected with T7 phage from a frozen stock (multiplicity of infection=0.4) and incubated with shaking at 32° C. until lysis (90-150 minutes). The lysates were centrifuged (6,000×g) and filtered (0.2 μm) to remove cell debris. The remaining kinases were produced in HEK-293 cells and subsequently tagged with DNA for qPCR detection.
(§3) Streptavidin-coated magnetic beads were treated with biotinylated small molecule ligands for 30 minutes at room temperature to generate affinity resins for kinase assays. The liganded beads were blocked with excess biotin and washed with blocking buffer (SeaBlock (Pierce), 1% BSA, 0.05% Tween 20, 1 mM DTT) to remove unbound ligand and to reduce non-specific phage binding. Binding reactions were assembled by combining kinases, liganded affinity beads, and test compounds in 1× binding buffer (20% SeaBlock, 0.17×PBS, 0.05% Tween 20, 6 mM DTT). Test compounds were prepared as 40× stocks in 100% DMSO and directly diluted into the assay. All reactions were performed in polypropylene 384-well plates in a final volume of 0.04 ml. […] The kinase concentration in the eluates was measured by qPCR. […]

[2] = target: T2, JAK1 (Homo sapiens, UniProt P23458); experiment: Biochemical JAK kinase assay (LanthaScreen), JAK1; details: converted from pIC50 by Cheng-Prusoff; 25 μM ATP; read-out: JAK 1 pKi (converted)
T2 construct: GST; purchased Life Technologies
T2 sequence (P23458 whole entry): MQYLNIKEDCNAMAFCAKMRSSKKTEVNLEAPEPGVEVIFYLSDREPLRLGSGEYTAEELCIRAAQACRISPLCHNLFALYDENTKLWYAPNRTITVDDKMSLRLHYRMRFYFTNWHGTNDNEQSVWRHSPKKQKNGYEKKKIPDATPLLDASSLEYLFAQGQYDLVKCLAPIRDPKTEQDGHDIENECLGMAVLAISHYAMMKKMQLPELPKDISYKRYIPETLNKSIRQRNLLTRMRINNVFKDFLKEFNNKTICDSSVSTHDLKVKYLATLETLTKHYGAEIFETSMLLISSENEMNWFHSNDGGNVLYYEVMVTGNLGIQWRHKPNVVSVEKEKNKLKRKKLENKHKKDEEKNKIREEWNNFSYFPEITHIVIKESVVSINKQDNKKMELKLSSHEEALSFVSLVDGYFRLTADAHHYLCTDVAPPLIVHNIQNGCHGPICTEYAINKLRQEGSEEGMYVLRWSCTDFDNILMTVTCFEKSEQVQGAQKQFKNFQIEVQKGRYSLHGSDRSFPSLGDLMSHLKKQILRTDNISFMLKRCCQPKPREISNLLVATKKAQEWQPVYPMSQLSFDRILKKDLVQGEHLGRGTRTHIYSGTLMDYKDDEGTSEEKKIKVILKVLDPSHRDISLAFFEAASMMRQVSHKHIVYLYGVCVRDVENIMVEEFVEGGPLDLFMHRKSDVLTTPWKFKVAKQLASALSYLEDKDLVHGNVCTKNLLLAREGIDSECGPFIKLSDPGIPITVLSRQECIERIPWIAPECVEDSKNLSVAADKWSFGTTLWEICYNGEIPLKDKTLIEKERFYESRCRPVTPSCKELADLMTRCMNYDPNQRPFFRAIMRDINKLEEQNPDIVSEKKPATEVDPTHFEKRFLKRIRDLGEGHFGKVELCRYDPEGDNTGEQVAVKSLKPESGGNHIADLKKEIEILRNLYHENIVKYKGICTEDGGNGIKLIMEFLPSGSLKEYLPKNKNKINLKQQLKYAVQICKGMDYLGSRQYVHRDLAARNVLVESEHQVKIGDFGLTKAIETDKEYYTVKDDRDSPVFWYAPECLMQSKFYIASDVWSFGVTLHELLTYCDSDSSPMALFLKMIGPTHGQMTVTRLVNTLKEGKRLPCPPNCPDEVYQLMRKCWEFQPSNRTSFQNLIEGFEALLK
Experimental: A panel of four LanthaScreen JAK biochemical assays (JAK1, 2, 3 and Tyk2) were carried in a common kinase reaction buffer (50 mM HEPES, pH 7.5, 0.01% Brij-35, 10 mM MgCl2, and 1 mM EGTA). Recombinant GST-tagged JAK enzymes and a GFP-tagged STAT1 peptide substrate were obtained from Life Technologies.
Serially diluted compound was pre-incubated with each of the four JAK enzymes and the substrate in white 384-well microplates (Corning) at ambient temperature for 1 h. ATP was subsequently added to initiate the kinase reactions in 10 μL total volume, with 1% DMSO. […] The plates were allowed to incubate at ambient temperature for 1 h before being read on the EnVision reader (Perkin Elmer). Emission ratio signals (520 nm/495 nm) were recorded and utilized to calculate the percent inhibition values based on DMSO and background controls.
For dose-response analysis, percent inhibition data were plotted vs. compound concentrations, and IC50 values were determined from a 4-parameter robust fit model with the Prism software (GraphPad Software). Results were expressed as pIC50 (negative logarithm of IC50) and subsequently converted to pKi (negative logarithm of dissociation constant, Ki) using the Cheng-Prusoff equation.

[3] = system: IL-2 stimulated STAT5 phosphorylation in Tall-1 human T cell line; experiment: Inhibition of IL-2 stimulated pSTAT5 in Tall-1 T cells; type: cell-based; details: AlphaLisa, read-out: pIC50, inhibition of IL-2 stimulated pSTAT5 (converted)
Experimental: The potency of test compounds for inhibition of interleukin-2 (IL-2) stimulated STAT5 phosphorylation was measured in the Tall-1 human T cell line (DSMZ) using AlphaLisa. Because IL-2 signals through JAK1/3, this assay provides a measure of JAK1/3 cellular potency.
Phosphorylated STAT5 was measured via the AlphaLISA SureFire Ultra pSTAT5 (Tyr694/699) kit (PerkinElmer). Human T cells from the Tall-1 cell line were cultured in a 37° C., 5% CO2 humidified incubator in RPMI (Life Technologies) supplemented with 15% Heat Inactivated Fetal Bovine Serum (FBS, Life Technologies), 2 mM Glutamax (Life Technologies), 25 mM HEPES (Life Technologies) and 1× Pen/Strep (Life Technologies). Compounds were serially diluted in DMSO and dispensed acoustically to empty wells. […] Phosphorylated STAT5 was measured via the pSTAT5 AlphaLisa kit (PerkinElmer). […] Luminescence was measured with excitation at 689 nm and emission at 570 nm using an EnVision plate r reader (PerkinElmer) under green filtered <100 lux light.
To determine the inhibitory potency of test compounds in response to IL-2, the average emission intensity of beads bound to pSTAT5 was measured in a human T cell line. IC50 values were determined from analysis of the inhibition curves of signal intensity versus compound concentration. Data are expressed as pIC50 (negative decadic logarithm IC50) values (mean±standard deviation).

[4] = target: T3, SLK (Homo sapiens, UniProt Q9H2G2); experiment: Kinome screen, SLK; type: binding; details: screened at 1 μM
T3 construct: made in house; host or cells: E. coli BL21-derived host (T7 phage) or HEK-293 cells
T3 sequence (Q9H2G2 whole entry): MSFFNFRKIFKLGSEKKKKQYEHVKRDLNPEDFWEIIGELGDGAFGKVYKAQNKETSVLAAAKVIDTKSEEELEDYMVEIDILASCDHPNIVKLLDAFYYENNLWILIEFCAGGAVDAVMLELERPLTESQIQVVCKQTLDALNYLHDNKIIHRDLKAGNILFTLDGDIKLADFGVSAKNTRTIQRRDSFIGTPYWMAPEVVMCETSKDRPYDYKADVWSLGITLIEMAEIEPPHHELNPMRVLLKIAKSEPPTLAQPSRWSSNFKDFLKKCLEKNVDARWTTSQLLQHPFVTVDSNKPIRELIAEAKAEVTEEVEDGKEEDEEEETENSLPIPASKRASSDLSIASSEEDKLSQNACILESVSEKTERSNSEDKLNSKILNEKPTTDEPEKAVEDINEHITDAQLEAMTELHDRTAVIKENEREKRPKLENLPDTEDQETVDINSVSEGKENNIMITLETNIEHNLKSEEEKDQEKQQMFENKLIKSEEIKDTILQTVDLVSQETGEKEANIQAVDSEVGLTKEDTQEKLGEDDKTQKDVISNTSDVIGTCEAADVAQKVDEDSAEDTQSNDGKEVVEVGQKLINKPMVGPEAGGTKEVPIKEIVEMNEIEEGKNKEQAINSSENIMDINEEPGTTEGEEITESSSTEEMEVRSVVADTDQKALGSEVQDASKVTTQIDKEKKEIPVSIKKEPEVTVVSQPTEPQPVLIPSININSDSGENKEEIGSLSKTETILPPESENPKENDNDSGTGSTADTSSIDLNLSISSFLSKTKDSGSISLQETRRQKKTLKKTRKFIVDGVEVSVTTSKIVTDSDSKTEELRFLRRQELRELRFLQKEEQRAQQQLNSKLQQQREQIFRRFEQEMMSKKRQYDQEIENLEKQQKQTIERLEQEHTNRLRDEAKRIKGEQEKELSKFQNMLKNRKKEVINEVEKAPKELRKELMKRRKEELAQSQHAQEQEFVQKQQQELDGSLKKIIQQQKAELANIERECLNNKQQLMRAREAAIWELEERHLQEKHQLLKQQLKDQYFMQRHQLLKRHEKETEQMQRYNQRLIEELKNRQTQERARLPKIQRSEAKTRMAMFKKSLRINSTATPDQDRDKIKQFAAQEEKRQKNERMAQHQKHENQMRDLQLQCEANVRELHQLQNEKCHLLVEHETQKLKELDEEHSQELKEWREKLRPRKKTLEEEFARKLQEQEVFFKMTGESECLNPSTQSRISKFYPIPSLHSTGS
Experimental: as §1, §2, §3

[5] = target: T4, PKAC-ALPHA (Homo sapiens, UniProt P17612); experiment: Kinome screen, PKAC-ALPHA; type: binding; details: screened at 1 μM
T4 construct: made in house; host or cells: E. coli BL21-derived host (T7 phage) or HEK-293 cells
Experimental: as §1, §2, §3

T1 sequence (O96013 whole entry): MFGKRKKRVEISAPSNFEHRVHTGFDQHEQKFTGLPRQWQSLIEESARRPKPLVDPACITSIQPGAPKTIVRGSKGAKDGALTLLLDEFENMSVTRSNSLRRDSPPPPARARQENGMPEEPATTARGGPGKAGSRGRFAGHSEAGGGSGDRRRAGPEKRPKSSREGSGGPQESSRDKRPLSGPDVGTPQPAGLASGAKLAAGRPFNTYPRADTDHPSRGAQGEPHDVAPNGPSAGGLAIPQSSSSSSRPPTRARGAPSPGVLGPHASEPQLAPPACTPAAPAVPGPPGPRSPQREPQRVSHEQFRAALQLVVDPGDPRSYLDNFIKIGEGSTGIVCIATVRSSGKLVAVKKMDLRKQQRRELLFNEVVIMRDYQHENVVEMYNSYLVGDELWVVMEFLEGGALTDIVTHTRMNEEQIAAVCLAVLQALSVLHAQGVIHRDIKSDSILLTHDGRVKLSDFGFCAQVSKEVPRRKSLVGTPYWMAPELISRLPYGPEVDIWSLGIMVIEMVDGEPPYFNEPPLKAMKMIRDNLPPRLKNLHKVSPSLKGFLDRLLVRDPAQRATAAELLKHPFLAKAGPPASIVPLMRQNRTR

CCc1cc(O)c(F)cc1-c1cc(F)c2c(-c3nc4c([nH]3)CCN(C(=O)[C@]35C[C@H]3CCN5)C4)n[nH]c2c1 [Compound 1, (1S,5R)-2-azabicyclo[3.1.0]hexan-1-yl(2-(6-(2-ethyl-5-fluoro-4-hydroxyphenyl)-4-fluoro-1H-indazol-3-yl)-6,7-dihydro-3H-imidazo[4,5-c]pyridin-5(4H)-yl)methanone]
inhibition at 1 µM [1]: 41% | Ki [2]: 0.126 nM | IC50 [3]: 15.8 nM | inhibition at 1 µM [4]: 100% | inhibition at 1 µM [5]: 22%
